Results taken from publication PMC2755957 (The Journal of Biological Chemistry, 2009).
Where a chain is given by its changes, count along the chain named.

Legend:
[1] = target: T1, mouse Δ1–24-L-PGDS (lipocalin type prostaglandin D synthase) (Mus musculus, UniProt O09114, S45A); experiment: surface plasmon resonance; format: binding
T1 sequence (O09114 25-189 S45A): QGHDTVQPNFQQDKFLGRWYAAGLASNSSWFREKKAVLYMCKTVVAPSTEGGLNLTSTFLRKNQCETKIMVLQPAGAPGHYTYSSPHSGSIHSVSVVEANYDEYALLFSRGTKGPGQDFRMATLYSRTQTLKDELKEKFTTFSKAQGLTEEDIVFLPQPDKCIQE

[2] = target: T2, mouse Δ1–24-L-PGDS (lipocalin type prostaglandin D synthase) (Mus musculus, UniProt O09114); experiment: PGDS assay, [[…]-14C]PGH2 to [[…]-14C]PGD2 by TLC; format: biochemical
T2 sequence (O09114 25-189): T1 sequence (O09114 25-189 S45A) with A21S

Δ^1–24-C65A + W54A = target: T3, Δ^1–24-C65A + W54A (Mus musculus, UniProt O09114, C65A/W54A); experiment: biochemical
T3 sequence (O09114 1-189 W54A/C65A): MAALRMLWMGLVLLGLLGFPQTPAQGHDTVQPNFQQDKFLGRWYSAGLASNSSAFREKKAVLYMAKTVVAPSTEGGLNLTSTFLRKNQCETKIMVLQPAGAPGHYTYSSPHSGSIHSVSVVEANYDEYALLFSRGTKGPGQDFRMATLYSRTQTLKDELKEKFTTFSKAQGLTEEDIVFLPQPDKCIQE

Δ^1–24-C65A + P110A = target: T4, Δ^1–24-C65A + P110A (Mus musculus, UniProt O09114, C65A/P110A); experiment: biochemical
T4 sequence (O09114 1-189 C65A/P110A): T3 sequence (O09114 1-189 W54A/C65A) with A54W, P110A

Δ^1–24-L-PGDS + P110A = target: T5, Δ^1–24-L-PGDS + P110A (Mus musculus, UniProt O09114, P110A); experiment: biochemical
T5 sequence (O09114 1-189 P110A): T3 sequence (O09114 1-189 W54A/C65A) with A54W, A65C, P110A

[3] = target: T6, mouse Δ1–24-L-PGDS (lipocalin type prostaglandin D synthase) (Mus musculus, UniProt O09114, H116A); experiment: biochemical
T6 sequence (O09114 25-189 H116A): T1 sequence (O09114 25-189 S45A) with A21S, H92A

[4] = target: T6, mouse Δ1–24-L-PGDS (lipocalin type prostaglandin D synthase); experiment: surface plasmon resonance; format: binding
[5] = target: T7, Δ^1–24-L-PGDS + S45A/S81A (Mus musculus, UniProt O09114, S45A/S81A); experiment: biochemical
T7 sequence (O09114 1-189 S45A/S81A): T3 sequence (O09114 1-189 W54A/C65A) with S45A, A54W, A65C, S81A

Kd [1]	Ki [2]	Kd (Δ^1–24-C65A + W54A)	Kd (Δ^1–24-C65A + P110A)	Kd (Δ^1–24-L-PGDS + P110A)	Kd [3]	Kd [4]	Kd [5]	SMILES
15.2 ± 2.4 µM	30 µM	49.2 ± 3.7 µM	22.4 ± 1.4 µM	13.5 ± 3.1 µM	27.3 ± 2.5 µM	–	–	CCCCC[C@H](O)/C=C/[C@H]1[C@@H]2CO[C@@H](C2)[C@@H]1C/C=C\CCCC(=O)O [U-44069]
16.2 ± 1.4 µM	36 µM	42.4 ± 3.4 µM	–	–	–	48.5 ± 4.4 µM	19.1 ± 2.6 µM	CCCCC[C@H](O)/C=C/[C@@H]1[C@@H](C/C=C\CCCC(=O)O)[C@H]2CO[C@@H]1C2 [U-46619]
